# Patent US20160199500A1, “COMPOSITIONS COMPRISING VITAMIN B12 AND INTRINSIC FACTOR AND METHODS OF USE THEREOF” (Syracuse University, priority 2013, published 2016)
# How the values were obtained:
# cubilin (CUBN) = cubilin (CUBN) (Homo sapiens, UniProt O60494+P27352); conditions: binds CUB domains 5-8, Ca2+ dependent; read-out: Kd of IF-B12 for cubilin; cited from earlier work
# [1] = system: BeWo cells (cubilin receptor); test: Uptake and internalization in BeWo cells by confocal microscopy; format: cell-based; conditions: conjugates incubated with IF
# [2] = pre injection of 50 mg two minutes before an 125I-labeled conjugate, mice; cited from earlier work
# cubilin (CUBN), sequence (O60494 36-3623, species assumed): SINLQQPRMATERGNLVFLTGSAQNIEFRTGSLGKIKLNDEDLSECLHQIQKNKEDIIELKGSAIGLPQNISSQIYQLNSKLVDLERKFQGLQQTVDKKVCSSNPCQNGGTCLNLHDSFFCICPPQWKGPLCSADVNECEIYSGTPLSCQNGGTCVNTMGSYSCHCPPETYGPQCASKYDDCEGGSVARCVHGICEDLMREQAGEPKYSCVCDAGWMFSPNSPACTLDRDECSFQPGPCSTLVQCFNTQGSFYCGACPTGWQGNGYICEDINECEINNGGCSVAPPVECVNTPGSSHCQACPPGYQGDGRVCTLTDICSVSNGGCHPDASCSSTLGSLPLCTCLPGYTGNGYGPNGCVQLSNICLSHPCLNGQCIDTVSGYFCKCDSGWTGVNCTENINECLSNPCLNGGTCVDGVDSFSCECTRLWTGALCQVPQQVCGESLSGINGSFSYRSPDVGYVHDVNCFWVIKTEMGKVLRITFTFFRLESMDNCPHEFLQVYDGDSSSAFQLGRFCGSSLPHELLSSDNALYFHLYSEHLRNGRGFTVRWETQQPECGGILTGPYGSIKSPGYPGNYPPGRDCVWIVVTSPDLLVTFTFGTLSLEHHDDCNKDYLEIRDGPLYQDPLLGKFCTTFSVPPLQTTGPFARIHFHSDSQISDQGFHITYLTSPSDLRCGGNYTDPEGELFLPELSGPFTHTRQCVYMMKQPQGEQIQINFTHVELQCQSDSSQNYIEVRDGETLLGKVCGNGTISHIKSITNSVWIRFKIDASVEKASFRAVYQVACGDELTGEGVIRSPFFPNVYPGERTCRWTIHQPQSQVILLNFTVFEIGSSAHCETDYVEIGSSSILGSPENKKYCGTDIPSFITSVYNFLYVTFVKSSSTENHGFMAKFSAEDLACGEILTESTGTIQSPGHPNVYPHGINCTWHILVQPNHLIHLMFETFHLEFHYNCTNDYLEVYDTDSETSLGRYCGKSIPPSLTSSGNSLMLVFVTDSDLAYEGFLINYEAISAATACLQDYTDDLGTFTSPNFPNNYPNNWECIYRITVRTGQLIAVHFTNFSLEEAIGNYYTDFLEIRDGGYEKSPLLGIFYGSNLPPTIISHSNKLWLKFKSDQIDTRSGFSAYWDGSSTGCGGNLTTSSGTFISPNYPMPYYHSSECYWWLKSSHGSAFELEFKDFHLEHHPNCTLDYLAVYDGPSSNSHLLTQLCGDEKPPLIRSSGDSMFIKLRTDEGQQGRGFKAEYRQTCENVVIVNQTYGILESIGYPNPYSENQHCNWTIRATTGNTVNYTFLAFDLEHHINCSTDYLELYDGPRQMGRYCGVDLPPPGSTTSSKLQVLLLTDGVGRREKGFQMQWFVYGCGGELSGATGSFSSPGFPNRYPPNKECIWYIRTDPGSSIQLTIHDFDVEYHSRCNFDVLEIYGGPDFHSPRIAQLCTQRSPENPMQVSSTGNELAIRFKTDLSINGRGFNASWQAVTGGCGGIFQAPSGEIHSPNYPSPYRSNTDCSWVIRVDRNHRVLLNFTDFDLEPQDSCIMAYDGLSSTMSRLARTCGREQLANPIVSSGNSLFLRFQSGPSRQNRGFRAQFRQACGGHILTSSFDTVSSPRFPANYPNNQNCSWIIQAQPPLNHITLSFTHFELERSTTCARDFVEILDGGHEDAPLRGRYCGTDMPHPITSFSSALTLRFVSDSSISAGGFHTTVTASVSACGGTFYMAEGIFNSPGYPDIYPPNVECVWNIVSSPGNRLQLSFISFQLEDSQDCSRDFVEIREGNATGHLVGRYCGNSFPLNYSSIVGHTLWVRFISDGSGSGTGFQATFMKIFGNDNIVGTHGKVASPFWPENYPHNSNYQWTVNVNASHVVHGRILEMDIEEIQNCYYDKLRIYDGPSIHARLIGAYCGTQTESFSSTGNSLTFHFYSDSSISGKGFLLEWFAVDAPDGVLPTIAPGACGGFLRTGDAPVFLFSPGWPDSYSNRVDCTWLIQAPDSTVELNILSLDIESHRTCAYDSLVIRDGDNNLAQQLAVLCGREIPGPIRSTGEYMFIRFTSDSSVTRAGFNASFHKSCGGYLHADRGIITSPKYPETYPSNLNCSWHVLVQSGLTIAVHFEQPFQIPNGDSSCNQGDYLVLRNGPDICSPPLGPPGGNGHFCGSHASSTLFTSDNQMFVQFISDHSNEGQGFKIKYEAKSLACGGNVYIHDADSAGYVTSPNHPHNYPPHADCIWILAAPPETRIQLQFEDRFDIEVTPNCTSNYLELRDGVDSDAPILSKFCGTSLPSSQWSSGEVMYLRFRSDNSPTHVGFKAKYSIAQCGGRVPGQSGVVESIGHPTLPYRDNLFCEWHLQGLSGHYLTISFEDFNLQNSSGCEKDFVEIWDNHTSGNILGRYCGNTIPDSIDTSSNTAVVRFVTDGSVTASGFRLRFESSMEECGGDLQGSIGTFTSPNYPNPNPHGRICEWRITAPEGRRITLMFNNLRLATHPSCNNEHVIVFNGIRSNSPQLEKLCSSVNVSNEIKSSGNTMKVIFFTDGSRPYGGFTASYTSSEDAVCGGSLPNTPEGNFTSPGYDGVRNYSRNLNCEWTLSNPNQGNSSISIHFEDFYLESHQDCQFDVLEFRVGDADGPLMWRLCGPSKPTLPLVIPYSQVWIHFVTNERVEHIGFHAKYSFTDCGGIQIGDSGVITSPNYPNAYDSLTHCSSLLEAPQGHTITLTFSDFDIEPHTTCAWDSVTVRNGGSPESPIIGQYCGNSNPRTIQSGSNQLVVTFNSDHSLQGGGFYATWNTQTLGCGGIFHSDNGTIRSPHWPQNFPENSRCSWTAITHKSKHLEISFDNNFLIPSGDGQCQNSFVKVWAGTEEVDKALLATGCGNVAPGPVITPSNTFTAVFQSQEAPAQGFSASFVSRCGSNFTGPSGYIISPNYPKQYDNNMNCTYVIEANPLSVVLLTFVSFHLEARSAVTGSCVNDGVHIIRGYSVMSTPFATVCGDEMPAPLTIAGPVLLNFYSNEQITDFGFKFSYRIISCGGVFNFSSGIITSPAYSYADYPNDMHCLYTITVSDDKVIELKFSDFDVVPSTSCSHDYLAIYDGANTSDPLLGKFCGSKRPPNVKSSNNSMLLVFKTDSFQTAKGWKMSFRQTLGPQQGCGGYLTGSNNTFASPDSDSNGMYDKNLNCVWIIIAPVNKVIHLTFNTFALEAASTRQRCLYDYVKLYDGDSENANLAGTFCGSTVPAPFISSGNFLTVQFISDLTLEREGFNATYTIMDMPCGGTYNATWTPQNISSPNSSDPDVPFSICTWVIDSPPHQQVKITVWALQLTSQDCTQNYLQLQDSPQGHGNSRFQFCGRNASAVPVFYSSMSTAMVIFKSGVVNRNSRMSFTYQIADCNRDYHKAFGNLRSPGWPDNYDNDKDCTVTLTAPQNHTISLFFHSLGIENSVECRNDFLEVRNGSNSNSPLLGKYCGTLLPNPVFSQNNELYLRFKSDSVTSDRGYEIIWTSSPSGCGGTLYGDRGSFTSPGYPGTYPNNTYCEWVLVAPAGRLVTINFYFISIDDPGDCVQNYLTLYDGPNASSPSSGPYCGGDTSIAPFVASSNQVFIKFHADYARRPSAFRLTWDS
# cubilin (CUBN), sequence (P27352 19-417, species assumed): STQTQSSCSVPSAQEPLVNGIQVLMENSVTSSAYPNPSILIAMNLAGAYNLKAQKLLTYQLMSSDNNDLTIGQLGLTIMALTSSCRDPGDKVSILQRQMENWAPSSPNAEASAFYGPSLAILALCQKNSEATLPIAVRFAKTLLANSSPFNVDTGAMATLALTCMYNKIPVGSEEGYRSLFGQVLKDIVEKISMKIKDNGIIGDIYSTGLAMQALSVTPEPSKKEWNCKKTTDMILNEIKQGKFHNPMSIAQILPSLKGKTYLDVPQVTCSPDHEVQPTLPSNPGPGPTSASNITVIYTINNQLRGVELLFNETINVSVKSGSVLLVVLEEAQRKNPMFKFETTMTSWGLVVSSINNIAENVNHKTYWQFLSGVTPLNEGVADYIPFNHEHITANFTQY
molecule,measurement,setting,value
"IF-B12: complex of intrinsic factor, a 50 kDa protein, bound to B12",Kd,cubilin (CUBN),~5 nM
IF405: intrinsic factor tagged with Alexa Fluor 405,"binding, uptake or internalization in BeWo cells",[1],shows uptake
"NCCCC[C@H](N)C(=O)O [1-lysine, L-lysine]",decrease of kidney uptake,[2],approximately 95%
